From BigSolDB 2.1

C=CC1=C(C(=O)O)N2C(=O)[C@@H](NC(=O)/C(=N\OCC(=O)O)c3csc(N)n3)[C@H]2SC1.O.O.O
solubility (mole fraction) (in acetone, 278.15 K): 0.00223 | solubility (mole fraction) (in acetone, 283.15 K): 0.00276 | solubility (mole fraction) (in acetone, 288.15 K): 0.00308 | solubility (mole fraction) (in acetone, 293.15 K): 0.00346 | solubility (mole fraction) (in acetone, 298.15 K): 0.004 | solubility (mole fraction) (in acetone, 303.15 K): 0.0044 | solubility (mole fraction) (in acetone, 308.15 K): 0.00518 | solubility (mole fraction) (in acetone, 313.15 K): 0.00581 | solubility (mole fraction) (in acetone, 318.15 K): 0.00701 | solubility (mole fraction) (in acetone, 323.15 K): 0.00854 | solubility (mole fraction) (in ethanol, 278.15 K): 0.00189 | solubility (mole fraction) (in ethanol, 283.15 K): 0.0021 | solubility (mole fraction) (in ethanol, 288.15 K): 0.00246 | solubility (mole fraction) (in ethanol, 293.15 K): 0.00285 | solubility (mole fraction) (in ethanol, 298.15 K): 0.00321 | solubility (mole fraction) (in ethanol, 303.15 K): 0.0037 | solubility (mole fraction) (in ethanol, 308.15 K): 0.00415 | solubility (mole fraction) (in ethanol, 313.15 K): 0.00478 | solubility (mole fraction) (in ethanol, 318.15 K): 0.00536 | solubility (mole fraction) (in ethanol, 323.15 K): 0.00632 | solubility (mole fraction) (in ethyl acetate, 278.15 K): 0.000678 | solubility (mole fraction) (in ethyl acetate, 283.15 K): 0.000747 | solubility (mole fraction) (in ethyl acetate, 288.15 K): 0.000971 | solubility (mole fraction) (in ethyl acetate, 293.15 K): 0.00116 | solubility (mole fraction) (in ethyl acetate, 298.15 K): 0.00139 | solubility (mole fraction) (in ethyl acetate, 303.15 K): 0.00159 | solubility (mole fraction) (in ethyl acetate, 308.15 K): 0.00185 | solubility (mole fraction) (in ethyl acetate, 313.15 K): 0.00226 | solubility (mole fraction) (in ethyl acetate, 318.15 K): 0.00257 | solubility (mole fraction) (in ethyl acetate, 323.15 K): 0.00334 | solubility (mole fraction) (in isopropanol, 278.15 K): 0.000918 | solubility (mole fraction) (in isopropanol, 283.15 K): 0.00105 | solubility (mole fraction) (in isopropanol, 288.15 K): 0.00128 | solubility (mole fraction) (in isopropanol, 293.15 K): 0.00148 | solubility (mole fraction) (in isopropanol, 298.15 K): 0.00178 | solubility (mole fraction) (in isopropanol, 303.15 K): 0.00195 | solubility (mole fraction) (in isopropanol, 308.15 K): 0.0023 | solubility (mole fraction) (in isopropanol, 313.15 K): 0.00255 | solubility (mole fraction) (in isopropanol, 318.15 K): 0.00291 | solubility (mole fraction) (in isopropanol, 323.15 K): 0.0035 | solubility (mole fraction) (in n-butanol, 278.15 K): 0.000983 | solubility (mole fraction) (in n-butanol, 283.15 K): 0.00102 | solubility (mole fraction) (in n-butanol, 288.15 K): 0.00122 | solubility (mole fraction) (in n-butanol, 293.15 K): 0.00151 | solubility (mole fraction) (in n-butanol, 298.15 K): 0.00172 | solubility (mole fraction) (in n-butanol, 303.15 K): 0.002 | solubility (mole fraction) (in n-butanol, 308.15 K): 0.00249 | solubility (mole fraction) (in n-butanol, 313.15 K): 0.00293 | solubility (mole fraction) (in n-butanol, 318.15 K): 0.00343 | solubility (mole fraction) (in n-butanol, 323.15 K): 0.00437 | solubility (mole fraction) (in n-pentanol, 278.15 K): 0.000403 | solubility (mole fraction) (in n-pentanol, 283.15 K): 0.00051 | solubility (mole fraction) (in n-pentanol, 288.15 K): 0.000602 | solubility (mole fraction) (in n-pentanol, 293.15 K): 0.000779 | solubility (mole fraction) (in n-pentanol, 298.15 K): 0.00101 | solubility (mole fraction) (in n-pentanol, 303.15 K): 0.00136 | solubility (mole fraction) (in n-pentanol, 308.15 K): 0.00152 | solubility (mole fraction) (in n-pentanol, 313.15 K): 0.00191 | solubility (mole fraction) (in n-pentanol, 318.15 K): 0.00255 | solubility (mole fraction) (in n-pentanol, 323.15 K): 0.003 | solubility (mole fraction) (in sec-butanol, 278.15 K): 0.000899 | solubility (mole fraction) (in sec-butanol, 283.15 K): 0.000995 | solubility (mole fraction) (in sec-butanol, 288.15 K): 0.00119 | solubility (mole fraction) (in sec-butanol, 293.15 K): 0.00143 | solubility (mole fraction) (in sec-butanol, 298.15 K): 0.0015 | solubility (mole fraction) (in sec-butanol, 303.15 K): 0.00173 | solubility (mole fraction) (in sec-butanol, 308.15 K): 0.00211 | solubility (mole fraction) (in sec-butanol, 313.15 K): 0.00234 | solubility (mole fraction) (in sec-butanol, 318.15 K): 0.00276 | solubility (mole fraction) (in sec-butanol, 323.15 K): 0.00316
